“Also recorded” adds a separate entry of the source. Where a SMILES comes first, the peptide text is derived from it. [ ]: non-standard residue; d: D form. dNMeA = CN[C@H](C)C(=O)O; Sar = CNCC(=O)O
Experiments:
[1] = In vitro metabolic stability in mouse liver microsomes
[2] = target: T1, KOR (Mus musculus, UniProt P33534); test: 55° C. warm-water tail-withdrawal assay, antagonism of U50,488-induced antinociception; type: in vivo; conditions: for KOR antagonism: i.c.v. pretreatment, U50,488 10 mg/kg i.p.
T1 construct: from tissue; host or cells: living C57Bl/6 mice (whole animal; CNS and periphery)

[3] = target: T2, μ opioid receptor (Mus musculus, UniProt P42866); test: 55° C. warm-water tail-withdrawal assay, antagonism of morphine-mediated antinociception; type: in vivo; conditions: 30 nmol i.c.v., 2.5 h pretreatment
T2 construct: mice are pretreated with the compound of the invention; from tissue; host or cells: living C57Bl/6 mice (whole animal)

[4] = target: T3, δ opioid receptor (Mus musculus, UniProt P32300); test: 55° C. warm-water tail-withdrawal assay, antagonism of SNC80-mediated antinociception; type: in vivo; conditions: 30 nmol i.c.v., 2.5 h pretreatment
T3 construct: from tissue; host or cells: living C57Bl/6 mice (whole animal)

[5] = tested on: MOR KO mice; test: Opioid receptor selectivity of antinociception, tail-withdrawal assay in MOR KO mice; type: in vivo, mouse; conditions: i.c.v.
[6] = tested on: mice; test: Reinstatement of extinguished ethanol conditioned place preference; type: in vivo, mouse; conditions: 0.01 nmol i.c.v.
Excerpt: Similarly mice were place-conditioned using ethanol in a conditioned place-preference assay [Sperling, R. E., Gomes, S. M., Sypek, E. I., Carey, A. N. and McLaughlin, J. P., 2010. Endogenous kappa-opioid mediation of stress-induced potentiation of ethanol-conditioned place preference and self-administration. Psychopharmacology, 210, 199-209] with a biased conditioning paradigm (see McLaughlin, J. P., Ganno M. L., Eans, S. O., Mizrachi, E. and Paris, J. P., 2014. HIV-1 Tat protein exposure potentiates ethanol reward and reinstates extinguished ethanol-conditioned place preference. Current HIV Research, 12(6), 415-423). […] Mice were then pretreated once daily for two days with vehicle (50% DMSO in 0.9% saline, i.c.v.) or cyclo[D-Phe-Pro-Sar-Phe] (0.01 nmol, i.c.v.) and exposed to two days of forced swim stress or an additional cycle of ethanol place conditioning as described above.

[7] = tested on: KOR KO mice; conditions: 200 nmol i.c.v.; β-FNA 5 mg/kg s.c. −24 h
[8] = tested on: C57Bl/6 mice; test: Reinstatement of extinguished cocaine conditioned place preference
[9] = tested on: mice; test: Reinstatement of extinguished morphine conditioned place preference; conditions: for stress-induced reinstatement of morphine CPP, peripheral pretreatment: 10 mg/kg i.p., nor-BNI once 24 h prior, cyclo[D-Phe-Pro-Sar-Phe] twice, 2.5 h prior to forced swimming daily
[10] = liver microsomes, apparent t1/2 in mouse liver microsomes, mouse liver microsomes, 37° C.

T1 sequence (P33534 whole entry): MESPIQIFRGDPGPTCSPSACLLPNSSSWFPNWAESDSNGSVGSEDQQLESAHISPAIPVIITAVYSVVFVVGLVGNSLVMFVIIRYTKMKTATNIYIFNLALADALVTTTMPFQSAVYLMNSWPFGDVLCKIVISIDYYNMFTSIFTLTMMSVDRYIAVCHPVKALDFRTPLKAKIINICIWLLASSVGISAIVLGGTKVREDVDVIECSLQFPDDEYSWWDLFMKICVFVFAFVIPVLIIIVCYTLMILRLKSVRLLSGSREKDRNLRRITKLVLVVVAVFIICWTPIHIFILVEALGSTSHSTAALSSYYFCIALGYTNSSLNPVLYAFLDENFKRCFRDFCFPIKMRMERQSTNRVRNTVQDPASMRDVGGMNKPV
T2 sequence (P42866 whole entry): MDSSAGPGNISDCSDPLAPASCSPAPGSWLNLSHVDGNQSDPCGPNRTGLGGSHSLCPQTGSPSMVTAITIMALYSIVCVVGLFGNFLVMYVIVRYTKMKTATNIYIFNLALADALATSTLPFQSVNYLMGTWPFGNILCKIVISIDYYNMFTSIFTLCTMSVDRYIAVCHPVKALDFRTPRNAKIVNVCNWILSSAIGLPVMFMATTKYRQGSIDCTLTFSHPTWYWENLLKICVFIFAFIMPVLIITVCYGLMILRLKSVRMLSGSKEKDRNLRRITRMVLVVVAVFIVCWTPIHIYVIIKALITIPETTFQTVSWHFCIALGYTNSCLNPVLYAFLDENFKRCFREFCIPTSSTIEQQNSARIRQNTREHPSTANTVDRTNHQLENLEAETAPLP
T3 sequence (P32300 whole entry): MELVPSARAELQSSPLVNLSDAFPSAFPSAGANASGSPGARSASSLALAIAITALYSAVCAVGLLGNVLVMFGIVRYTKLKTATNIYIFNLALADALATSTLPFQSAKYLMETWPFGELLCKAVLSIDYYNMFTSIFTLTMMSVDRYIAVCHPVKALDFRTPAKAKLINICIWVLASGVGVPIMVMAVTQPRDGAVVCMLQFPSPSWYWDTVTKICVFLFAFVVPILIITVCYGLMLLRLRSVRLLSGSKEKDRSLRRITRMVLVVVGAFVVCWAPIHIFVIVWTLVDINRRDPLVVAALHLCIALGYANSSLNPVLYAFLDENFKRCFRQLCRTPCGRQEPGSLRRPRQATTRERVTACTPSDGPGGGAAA

Q: With `O=C1N[C@H](Cc2c[nH]c3ccccc23)C(=O)N[C@@H](Cc2ccccc2)C(=O)N2CCC[C@@H]2C(=O)N[C@H]1Cc1ccccc1` [[D-Trp]CJ-15,208, reference compound] (cyclo(F[dP]F[dW])) as the molecule, how does the half-life ([1]; microsomes) read?
A: 11 min

Q: Which results are given for `C[C@@H]1C(=O)N[C@@H](Cc2ccccc2)C(=O)N[C@H](Cc2ccccc2)C(=O)N2CCC[C@H]2C(=O)N1C` [cyclo[D-Phe-Pro-D-NMe-Ala-Phe]] (cyclo(F[dF]P[dNMeA]))?
A: KOR antagonism [2]: did not exhibit KOR antagonist activity; half-life [1, 10]: 12 min

Q: What does the source list for `CN1CC(=O)N[C@@H](Cc2ccccc2)C(=O)N[C@H](Cc2ccccc2)C(=O)N2CCC[C@H]2C1=O` [cyclo[D-Phe-Pro-Sar-Phe]] (cyclo(F[dF]P[Sar]))?
A: antagonism of U50,488-induced antinociception after i.p. administration ([2]; 2.5 h pretreatment, i.p.): dose-dependent antagonism of U50,488-induced antinociception; KOR antagonism [2]: significantly antagonized KOR in a dose-dependent manner; also recorded: significant antagonism of only the KOR-selective agonist U50,488; dose giving significant blockade of U50,488-induced antinociception (KOR antagonism) ([2]; i.c.v., 2.5 h pretreatment): 1 pmol; KOR antagonism after oral administration ([2]; p.o., 2.5 h after administration): demonstrated KOR antagonism; antagonism of centrally administered (i.c.v.) U50,488 after oral administration ([2]; p.o., U50,488 i.c.v.): dose-dependently antagonized i.c.v. U50,488; morphine-mediated antinociception after pretreatment [3]: 100±0%; SNC80-mediated antinociception after pretreatment [4]: 87.1±7.7%; antinociception in opioid receptor KO mice ([5]; 1 nmol dose): significantly impaired only in MOR KO mice; antinociception ED50 (and 95% C.I.) in MOR KO mice ([5]; MOR KO mice): 58.2 (17.4-558) nmol; stress- and ethanol-induced reinstatement of ethanol CPP (FIG. 11) [6]: prevented both stress- and ethanol-induced reinstatement of ethanol CPP; stress-induced reinstatement of ethanol CPP ([6]; −2 h): prevented stress-induced reinstatement of ethanol CPP; antinociception in KOR KO mice pretreated with MOR-selective antagonist β-FNA [7]: completely inhibited; half-life [1, 10]: 60 min; cocaine-induced reinstatement of cocaine CPP ([8]; 0.01 nmol i.c.v., 5 min pretreatment): prevented cocaine-induced reinstatement; reinstatement of cocaine CPP by compound alone ([8]; 0.01 nmol i.c.v., no stress or cocaine): did not induce reinstatement; stress-induced reinstatement of cocaine CPP ([8]; 0.01 nmol i.c.v., −1.5 h): prevented stress-induced reinstatement of cocaine CPP; stress-induced reinstatement of cocaine CPP, oral ([8]; 30 mg/kg and 60 mg/kg p.o., −2.5 h): prevented stress-induced reinstatement of cocaine CPP; stress- and cocaine-induced reinstatement of CPP after oral administration (FIG. 10B) ([8]; p.o.): prevented both stress- and cocaine-induced reinstatement of CPP after oral administration; morphine-induced reinstatement of morphine-CPP, lower dose ([9]; 0.01 nmol i.c.v.): did not have significant effects; reinstatement of extinguished morphine CPP by compound alone ([9]; 0.01 nmol i.c.v.): did not directly reinstate extinguished CPP; stress-induced reinstatement of morphine CPP ([9]; 0.01 nmol i.c.v., −2.5 h): prevented stress-induced reinstatement of morphine CPP; morphine-induced reinstatement of morphine-CPP ([9]; 0.03 nmol i.c.v., 5 min pretreatment): prevented morphine-induced reinstatement of morphine-CPP; stress-induced reinstatement of morphine CPP, peripheral pretreatment [9]: prevented stress-induced reinstatement

Q: With `Oc1ccc2c3c1O[C@H]1c4[nH]c5c(c4C[C@@]4(O)[C@@H](C2)N(CC2CC2)CC[C@]314)C[C@@]1(O)[C@H]2Cc3ccc(O)c4c3[C@@]1(CCN2CC1CC1)[C@H]5O4` [nor-BNI, nor-binaltorphimine, reference compound] as the molecule, how does the “stress-induced reinstatement of morphine CPP, peripheral pretreatment” value [9] read?
A: prevented stress-induced reinstatement

Source: patent US20210163532A1, “NOVEL M[…] PEPTIDES” (University of Florida Research Foundation, Incorporated, priority 2018, published 2021)
